Experimental data from patent publication US11707462B2, “Checkpoint kinase 1 (CHK1) inhibitors and uses thereof” (Boundless Bio, Inc., priority 2021, dated 2023).

Biological target: T1, Full-length human Chk1 protein (Homo sapiens, UniProt O14757)
T1 construct: purchased Carna Biosciences, Inc. 02-117
T1 sequence (O14757 1-476): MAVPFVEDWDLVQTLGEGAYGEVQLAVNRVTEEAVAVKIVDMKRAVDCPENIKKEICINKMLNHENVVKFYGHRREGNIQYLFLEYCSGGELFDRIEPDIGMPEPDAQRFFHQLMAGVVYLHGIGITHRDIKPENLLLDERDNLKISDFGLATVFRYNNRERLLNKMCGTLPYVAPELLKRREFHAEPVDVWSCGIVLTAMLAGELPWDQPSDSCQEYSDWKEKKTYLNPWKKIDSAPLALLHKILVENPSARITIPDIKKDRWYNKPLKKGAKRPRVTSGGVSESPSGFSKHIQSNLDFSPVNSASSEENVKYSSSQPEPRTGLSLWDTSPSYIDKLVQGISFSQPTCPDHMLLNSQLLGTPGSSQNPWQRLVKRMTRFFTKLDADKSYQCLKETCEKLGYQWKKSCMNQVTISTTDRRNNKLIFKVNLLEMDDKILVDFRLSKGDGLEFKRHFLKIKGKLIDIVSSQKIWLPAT
Experiment: Kinase HTRF biochemical assay (HTRF KinEASE), Chk1 enzyme activity
Conditions: full-length human Chk1, ATP 1 mM, 60 minutes at room temperature
Procedure: Example A: Kinase HTRF Biochemical Assay
Chk1 enzyme activity was measured using an HTRF KinEASE assay (Cisbio, catalog no. 62ST1PEC). Full-length human Chk1 protein (GenBank accession number NP_001265.1) was obtained from Carna Biosciences, Inc. (Kobe, Japan, catalog no. 02-117). The enzyme reaction was carried out in assay buffer containing (final concentrations): Chk1 enzyme (0.012 ng/μL), MgCl2 (5 mM) and DTT (1 mM). To determine compound dose response, DMSO stock solutions were serially diluted in a 10-point concentration series in duplicate. Compound solution (50 nL) was added to 384-well assay plates (Greiner, catalog no. 784075). To each well containing compound solution was added assay buffer solution (5 μL). Plates were centrifuged at 1000 rpm for 1 minute, then incubated at room temperature for 10 minutes. The reaction was started by addition of substrate buffer (5 μL/well) containing (final concentrations): STK substrate 1-biotin (120 nM) and ATP (1 mM). Assay plates were centrifuged at 1000 rpm for 1 minute, then incubated at room temperature for 60 minutes. The reaction was stopped by addition of detection buffer (Cisbio, 10 μL) containing (final concentrations): STK antibody-cryptate (0.25 nM) and streptavidin-XL665 (7.5 nM). Plates were centrifuged at 1000 rpm for 1 minute, then incubated at 25° C. for 2 hours. HTRF signal was read on an EnVision multimode plate reader […] in HTRF mode. Data were fit to dose-response curves using XLfit (IDBS, Surrey, UK) or Prism (GraphPad Software, La Jolla, Calif., US) to calculate IC50 values for each compound tested.

Compound	IC50
COc1cccc(O[C@H]2CC[C@H](N)C2)c1-c1cc(Nc2cnc(C#N)cn2)n[nH]1 [Example 1-6, 5-((5-(2-(((1S,3S)-3-aminocyclopentyl)oxy)-6-methoxyphenyl)-1H-pyrazol-3-yl)amino)pyrazine-2-carbonitrile]	> 1000 nM
CC(C)Oc1cccc(O[C@H]2C[C@H](N)C2)c1-c1cc(Nc2cnc(C#N)cn2)n[nH]1 [Example 1-15, 5-((5-(2-((1r,3r)-3-aminocyclobutoxy)-6-isopropoxyphenyl)-1H-pyrazol-3-yl)amino)pyrazine-2-carbonitrile]	100 to 500 nM
CC(C)Oc1cccc(O[C@@H]2CC[C@H](N)C2)c1-c1cc(Nc2cnc(C#N)cn2)n[nH]1 [Example 1-24, 5-((5-(2-(((1R,3S)-3-aminocyclopentyl)oxy)-6-isopropoxyphenyl)-1H-pyrazol-3-yl)amino)pyrazine-2-carbonitrile]	> 1000 nM
COCc1cccc(O[C@@H]2CC[C@H](N)C2)c1-c1cc(Nc2cnc(C#N)cn2)n[nH]1 [Example 1-30, 5-((5-(2-(((1R,3S)-3-aminocyclopentyl)oxy)-6-(methoxymethyl)phenyl)-1H-pyrazol-3-yl)amino)pyrazine-2-carbonitrile]	> 1000 nM
N#Cc1cnc(Nc2cc(-c3c(OC4CCC4)cccc3O[C@H]3CC[C@H](N)CC3)[nH]n2)cn1 [Example 1-34, 5-((5-(2-(((1r,4r)-4-aminocyclohexyl)oxy)-6-cyclobutoxyphenyl)-1H-pyrazol-3-yl)amino)pyrazine-2-carbonitrile]	100 to 500 nM
N#Cc1cnc(Nc2cc(-c3c(OC4CCC4)cccc3O[C@H]3C[C@H](N)C3)[nH]n2)cn1 [Example 1-35, 5-((5-(2-((1r,3r)-3-aminocyclobutoxy)-6-cyclobutoxyphenyl)-1H-pyrazol-3-yl)amino)pyrazine-2-carbonitrile]	100 to 500 nM
N#Cc1cnc(Nc2cc(-c3c(OC4CCC4)cccc3O[C@@H]3CC[C@H](N)C3)[nH]n2)cn1 [Example 1-36, 5-((5-(2-(((1R,3S)-3-aminocyclopentyl)oxy)-6-cyclobutoxyphenyl)-1H-pyrazol-3-yl)amino)pyrazine-2-carbonitrile]	100 to 500 nM

The remaining lines, values ahead:

IC50	Compound
> 1000 nM	COc1cccc(O[C@@H]2CCC[C@H](N)C2)c1-c1cc(Nc2cnc(C#N)cn2)n[nH]1 (relative stereo) [Example 1-66]
> 1000 nM	COc1cccc(OC[C@H]2C[C@@H](N)C2)c1-c1cc(Nc2cnc(C#N)cn2)n[nH]1 [Example 1-2, 5-((5-(2-(((1s,3s)-3-aminocyclobutyl)methoxy)-6-methoxyphenyl)-1H-pyrazol-3-yl)amino)pyrazine-2-carbonitrile]
> 1000 nM	COc1cccc(OC[C@H]2C[C@H](N)C2)c1-c1cc(Nc2cnc(C#N)cn2)n[nH]1 [Example 1-3]
100 to 500 nM	CC(C)Oc1cccc(O[C@H]2CC[C@H](N)CC2)c1-c1cc(Nc2cnc(C#N)cn2)n[nH]1 [Example 1-18, 5-((5-(2-(((1r,4r)-4-aminocyclohexyl)oxy)-6-isopropoxyphenyl)-1H-pyrazol-3-yl)amino)pyrazine-2-carbonitrile]
500 to 1000 nM	N#Cc1cnc(Nc2cc(-c3c(OCC(F)(F)F)cccc3O[C@@H]3CC[C@H](N)C3)[nH]n2)cn1 [Example 1-25, 5-((5-(2-(((1R,3S)-3-aminocyclopentyl)oxy)-6-(2,2,2-trifluoroethoxy)phenyl)-1-pyrazol-3-yl)amino)pyrazine-2-carbonitrile]
100 to 500 nM	N#Cc1cnc(Nc2cc(-c3c(OCC4CC4)cccc3O[C@H]3CC[C@H](N)CC3)[nH]n2)cn1 [Example 1-31, 5-((5-(2-(((1r,4r)-4-aminocyclohexyl)oxy)-6-(cyclopropylmethoxy)phenyl)-1H-pyrazol-3-yl)amino)pyrazine-2-carbonitrile]
100 to 500 nM	N#Cc1cnc(Nc2cc(-c3c(OCC4CC4)cccc3O[C@@H]3CC[C@H](N)C3)[nH]n2)cn1 [Example 1-33, 5-((5-(2-(((1R,3S)-3-aminocyclopentyl)oxy)-6-(cyclopropylmethoxy)phenyl)-1H-pyrazol-3-yl)amino)pyrazine-2-carbonitrile]
